In patent publication US20240067668A1, “HETEROARYL DERIVATIVE COMPOUND AND USE THEREOF” (VORONOI INC., priority 2020, published 2024) one finds GI50 data, which are given here for 20 molecules.

For experiment [1], the system named is BaF3-EGFR (Del19/T790M/C797S) cells. Briefly: Inhibitory activity on Ba/F3 cell proliferation (CellTiter-Glo, 72 hours). The class given is cell-based. As to conditions: Ba/F3 cells expressing EGFR Del19/T790M/C797S. The protocol:
(§1) The following experiments were performed to evaluate the inhibitory activity of the compound represented by Chemical Formula 1 according to the present invention on the proliferation of Ba/F3 cells expressing EGFR mutants.
(§2) BaF3-EGFR (WT) and BaF3-EGFR (Del19/T790M/C797S) cells were seeded in a clear bottom white 96-well plate at a density of 3×10^3/100 μl/well, and then 0.5 μl/well of the culture medium, containing the compounds at 12 concentrations (0.00001-2 mM) serially diluted in 3 folds and the DMSO control, was added to a final concentration of 0.00005-10 μM, followed by culturing in a 37° C. CO2 incubator for 72 hours. After 72 hours, the plates treated with the compounds were taken out, treated with 100 μl/well of CellTiter-Glo® 2.0 Assay (Promega) solution, and mixed well. After mixing well at room temperature for about 10 minutes, […] was measured using a microplate reader. As to Data, GI50 (μM) values were calculated using GraphPad Prism 8.3.0 (GraphPad software Inc., San Diego) as percentages in proportion to vehicle-based treated cells. The result values were calculated as a cell growth rate (%) compared to the control group. A graph was created using the GraphPad Prism version 5.0 program, and GI50 (μM) values were calculated.

For the next experiment, the system named is BaF3-EGFR (WT) cells. The description is as above. As to conditions: Ba/F3 cells expressing EGFR WT. Format: cell-based. The protocol: as §1, §2

Each structure is given as a SMILES string.

Consider `CN1CCN(c2ccc(Nc3nc(Nc4ccc5nccnc5c4P(C)(C)=O)c4cc[nH]c4n3)c(OCC(F)(F)F)c2)CC1` [Example 7, dimethyl (6-((2-((4-(4-methylpiperazin-1-yl)-2-(2,2,2-trifluoroethoxy)phenyl)amino)-7H-pyrrolo[2,3-d]pyrimidin-4-yl)amino)quinoxalin-5-yl)phosphine oxide], for which the GI50 (in experiment [1]; in the experiment with BaF3-EGFR (WT) cells) was above 0.1 µM throughout.

As for `C[C@@H]1CN(c2cc(OCC(F)(F)F)c(Nc3nc(Nc4ccc5nccnc5c4P(C)(C)=O)c4cc[nH]c4n3)cc2-c2cnn(C)c2)C[C@H](C)O1` [Example 10, (6-((2-((4-((2R, 6S)-2,6-dimethyl-morpholino)-5-(1-methyl-1H-pyrazol-4-yl)-2-(2,2,2-trifluoroethoxy)phenyl)amino)-7H-pyrrolo[2,3-d]pyrimidin-4-yl)amino)quinoxalin-5-yl)dimethyl phosphine oxide], the concentration for 50% growth inhibition (GI50) was at most 0.05 µM in experiment [1] and above 0.1 µM in the experiment with BaF3-EGFR (WT) cells.

Turning to `Cc1cc(Nc2nc(Nc3ccc4nccnc4c3P(C)(C)=O)c3cc[nH]c3n2)c(OCC(F)(F)F)cc1N1CCOCC1` [Example 11, dimethyl (6-((2-((5-methyl-4-morpholino-2-(2,2,2-trifluoroethoxy)phenyl)amino)-7H-pyrrolo[2,3-d]pyrimidin-4-yl)amino)quinoxalin-5-yl) phosphineoxide], the concentration for 50% growth inhibition (GI50) (in experiment [1]; with BaF3-EGFR (WT) cells) was above 0.1 µM each time.

In the case of `Cc1cc(Nc2nc(Nc3ccc4nccnc4c3P(C)(C)=O)c3cc[nH]c3n2)c(OCC(F)(F)F)cc1N1CCC(N2CCOCC2)CC1` [Example 12, dimethyl (6-((2-((5-methyl-4-(4-morpholino-piperidin-1-yl)-2-(2,2,2-trifluoroethoxy)phenyl)amino)-7H-pyrrolo[2,3-d]pyrimidin-4-yl)amino)quinoxalin-5-yl) phosphineoxide], the concentration for 50% growth inhibition (GI50) (in experiment [1]; in the experiment with BaF3-EGFR (WT) cells) was above 0.1 µM throughout.

For `CN1CCN(c2cc(OCC(F)(F)F)c(Nc3nc(Nc4cnc5ccccc5c4P(C)(C)=O)c4cc[nH]c4n3)cc2-c2cnn(C)c2)CC1` [Example 14, dimethyl (3-((2-((5-(1-methyl-1H-pyrazol-4-yl)-4-(4-methylpiperazin-1-yl)-2-(2,2,2-trifluoroethoxy)phenyl)amino)-7H-pyrrolo[2,3-d]pyrimidin-4-yl)amino)quinolin-4-yl)phosphine oxide], the GI50 (in experiment [1]; with BaF3-EGFR (WT) cells) was above 0.1 µM throughout.

With `Cn1cc(-c2cc(Nc3nc(Nc4ccc5nccnc5c4P(C)(C)=O)c4cc[nH]c4n3)ccc2N2CCC(N3CCOCC3)CC2)cn1` [Example 40, dimethyl (6-((2-((3-(1-methyl-1H-pyrazol-4-yl)-4-(4-morpholino-piperidin-1-yl)phenyl)amino)-7H-pyrrolo[2,3-d]pyrimidin-4-yl)amino)quinoxalin-5-yl) phosphinexide], the 50% growth inhibitory concentration (GI50) is at most 0.05 µM in experiment [1] and 0.05 to 0.1 µM with BaF3-EGFR (WT) cells.

As for `COc1cc(N2CCN(C3CC3)CC2)c(-c2cnn(C)c2)cc1Nc1nc(Nc2ccc3nccnc3c2P(C)(C)=O)c2cc[nH]c2n1` [Example 42, (6-((2-((4-(4-cyclopropyl-piperazin-1-yl)-2-methoxy-5-(1-methyl-1H-pyrazol-4-yl)phenyl)amino)-7H-pyrrolo[2,3-d]pyrimidin-4-yl)amino)quinoxalin-5-yl)dimethyl-phosphine oxide], the GI50 in experiment [1] is at most 0.05 µM; with BaF3-EGFR (WT) cells, above 0.1 µM.

With `COc1cc(N2CCN(C)CC2)c(-c2cnn(C(C)C)c2)cc1Nc1nc(Nc2ccc3nccnc3c2P(C)(C)=O)c2cc[nH]c2n1` [Example 49, (6-((2-((5-(1-isopropyl-1H-pyrazol-4-yl)-2-methoxy-4-(4-methyl-piperazin-1-yl)phenyl)amino)-7H-pyrrolo[2,3-d]pyrimidin-4-yl)amino)quinoxalin-5-yl)dimethyl-phosphine oxide], the 50% growth inhibitory concentration (GI50) (in experiment [1]; with BaF3-EGFR (WT) cells) was above 0.1 µM each time.

For the molecule `COc1cc(N2CCN(C)CC2)c(-c2cnn(C)c2)cc1Nc1nc(Nc2ccc3nccnc3c2P(C)(C)=O)c2c(Cl)c[nH]c2n1` [Example 51, (6-((5-chloro-2-((2-methoxy-5-(1-methyl-1H-pyrazol-4-yl)-4-(4-methylpiperazin-1-yl)phenyl)amino)-7H-pyrrolo[2,3-d]pyrimidin-4-yl)amino)quinoxalin-5-yl)dimethyl-phosphine oxide], the figures for the GI50 (in experiment [1]; in the experiment on BaF3-EGFR (WT) cells) were 0.05 to 0.1 µM and above 0.1 µM, respectively.

On to `COc1cc(N2CCN(C)CC2)c(-c2cnn(C)c2)cc1Nc1nc(Nc2ccc3nccnc3c2P(C)(C)=O)c2c(C#N)c[nH]c2n1` [Example 52], for which the GI50 (in experiment [1]; in the experiment on BaF3-EGFR (WT) cells) was above 0.1 µM throughout.

Turning to `COc1cc(N2CCN(C)CC2)c(-c2cnn(C)c2)cc1Nc1nc(Nc2ccc3nccnc3c2P(C)(C)=O)c2c(C(F)(F)F)c[nH]c2n1` [Example 53, (6-((2-((2-methoxy-5-(1-methyl-1H-pyrazol-4-yl)-4-(4-methyl-piperazin-1-yl)phenyl)amino)-5-(trifluoro-methyl)-7H-pyrrolo[2,3-d]pyrimidin-4-yl)amino)quinoxalin-5-yl)dimethyl-phosphine oxide], the 50% growth inhibitory concentration (GI50) (in experiment [1]; in the experiment with BaF3-EGFR (WT) cells) was above 0.1 µM each time.

Consider `COc1cc(N2CCC(N3CCN(C)CC3)CC2)ccc1Nc1nc(Nc2ccc3nccnc3c2P(C)(C)=O)c2cc[nH]c2n1` [Example 57, (6-((2-((2-methoxy-4-(4-(4-methylpiperazin-1-yl)piperidin-1-yl)phenyl)amino)-7H-pyrrolo[2,3-d]pyrimidin-4-yl)amino)quinoxalin-5-yl)dimethyl-phosphine oxide], for which the GI50 (in experiment [1]; with BaF3-EGFR (WT) cells) was 0.05 to 0.1 µM in each case.

Take `CN1CCN(C2CCN(c3ccc(Nc4nc(Nc5ccc6nccnc6c5P(C)(C)=O)c5cc[nH]c5n4)cc3)CC2)CC1` [Example 58, dimethyl (6-((2-((4-(4-(4-methylpiperazin-1-yl)piperidin-1-yl)phenyl)amino)-7H-pyrrolo[2,3-d]pyrimidin-4-yl)amino)quinoxalin-5-yl)phosphine oxide]: the GI50 is 0.05 to 0.1 µM in experiment [1] and above 0.1 µM in the experiment on BaF3-EGFR (WT) cells.

Take `COc1cc(N2CCC(N3CCN(C)CC3)CC2)c(C)cc1Nc1nc(Nc2ccc3nccnc3c2P(C)(C)=O)c2sccc2n1` [Example 59, (6-((2-((2-methoxy-5-methyl-4-(4-(4-methylpiperazin-1-yl)piperidin-1-yl)phenyl)amino)thieno [3,2-d]pyrimidin-4-yl)amino)quinoxalin-5-yl)dimethyl-phosphine oxide]: the 50% growth inhibitory concentration (GI50) (in experiment [1]; with BaF3-EGFR (WT) cells) was above 0.1 µM in each case.

For `COc1cc(N2CCC(N3CCN(C)CC3)CC2)c(C)cc1Nc1cc(Nc2ccc3nccnc3c2P(C)(C)=O)c2cc[nH]c2n1` [Example 63, (6-((6-((2-methoxy-5-methyl-4-(4-(4-methylpiperazin-1-yl)piperidin-1-yl)phenyl)amino)-1H-pyrrolo[2,3-b]pyridin-4-yl)amino)quinoxalin-5-yl)dimethyl-phosphine oxide], the concentration for 50% growth inhibition (GI50) (in experiment [1]; in the experiment with BaF3-EGFR (WT) cells) was above 0.1 µM each time.

On to `COc1cc(N2CCC(N3CCN(C)CC3)CC2)ccc1Nc1cc(Nc2ccc3nccnc3c2P(C)(C)=O)c2cc[nH]c2n1` [Example 64, (6-((6-((2-methoxy-4-(4-(4-methylpiperazin-1-yl)piperidin-1-yl)phenyl)amino)-1H-pyrrolo[2,3-b]pyridin-4-yl)amino)quinoxalin-5-yl)dimethyl-phosphine oxide], for which the 50% growth inhibitory concentration (GI50) (in experiment [1]; with BaF3-EGFR (WT) cells) was above 0.1 µM each time.

Take `COc1cc(N2CCC(N3CCN(C)CC3)CC2)cnc1Nc1cc(Nc2ccc3nccnc3c2P(C)(C)=O)c2cc[nH]c2n1` [Example 65, (6-((6-((3-methoxy-5-(4-(4-methylpiperazin-1-yl)piperidin-1-yl)pyridin-2-yl)amino)-1H-pyrrolo[2,3-b]pyridin-4-yl)amino)quinoxalin-5-yl)dimethyl-phosphine oxide]: the 50% growth inhibitory concentration (GI50) (in experiment [1]; in the experiment with BaF3-EGFR (WT) cells) was above 0.1 µM each time.

For `COc1cc(N2CCC(N3CCN(C)CC3)CC2)c(F)cc1Nc1nc(Nc2ccc3nccnc3c2P(C)(C)=O)c2cc[nH]c2n1` [Example 66, (6-((2-((5-fluoro-2-methoxy-4-(4-(4-methylpiperazin-1-yl)piperidin-1-yl)phenyl)amino)-7H-pyrrolo[2,3-d]pyrimidin-4-yl)amino)quinoxalin-5-yl)dimethyl-phosphine oxide], the GI50 (in experiment [1]; in the experiment with BaF3-EGFR (WT) cells) was above 0.1 µM throughout.

For `COc1cc(N2CCC(N3CCN(C)CC3)CC2)c(C(C)C)cc1Nc1nc(Nc2ccc3nccnc3c2P(C)(C)=O)c2cc[nH]c2n1` [Example 67, (6-((2-((5-isopropyl-2-methoxy-4-(4-(4-methylpiperazin-1-yl)piperidin-1-yl)phenyl)amino)-7H-pyrrolo[2,3-d]pyrimidin-4-yl)amino)quinoxalin-5-yl)dimethyl-phosphine oxide], the GI50 (in experiment [1]; in the experiment on BaF3-EGFR (WT) cells) was above 0.1 µM each time.

In the case of `COc1cc(N2CCC(N3CCN(C)CC3)CC2)c(C)cc1Nc1nc(Nc2cnc3ccccc3c2P(C)(C)=O)c2cc[nH]c2n1` [Example 90, (3-((2-((2-methoxy-5-methyl-4-(4-(4-methylpiperazin-1-yl)piperidin-1-yl)phenyl)amino)-7H-pyrrolo[2,3-d]pyrimidin-4-yl)amino)quinolin-4-yl)dimethyl-phosphine oxide], the GI50 (in experiment [1]; in the experiment on BaF3-EGFR (WT) cells) was above 0.1 µM each time.

A word on the GI50: it is the concentration that inhibits growth by half. Read a high GI50 as less potent growth inhibition.
